In US4209521A, “Anti-depressant indole derivatives” (John Wyeth & Brother Limited, priority 1977, dated 1980):
“Also recorded” adds a separate entry of the source.

Columns and labels:
hypertensive rats [1] = assay: Another procedure for determining anti-hypertensive activity in hypertensive rats; format: in vivo, rat; conditions: qualitative
mice (CF-1) = assay: CNS Activity (Effect on Behaviour of Mice); format: in vivo, mouse (CF-1)
Description: The test compounds are administered orally to three mice (CF-1 14 to 24 grams) at each of the following doses: 400, 127, 40 and 12.7 mg/kg. The animals are watched for two hours during which time signs of general stimulation (i.e. increased spontaneous motor activity, hyperactivity on tactile stimulation, twitching), general depression (i.e. decreased spontaneous motor activity, decreased respiration) and autonomic activity (i.e. miosis, mydriasis, diarrhoea) are noted.

hypertensive rats [2] = assay: Anti-hypertensive activity in deoxycorticosterone acetate hypertensive rats; format: in vivo, rat; conditions: for Reduction of blood pressure (in words): hypertensive rats, p.o., qualitative
Description: Female rats are rendered hypertensive by unilateral nephrectomy and the s.c. implantation of a pellet containing 30 mg of deoxycorticosterone acetate. The drinking water is replaced by normale saline ad lib for the first four weeks following preparation. Blood pressure stabilise at a hypertensive level after 6 weeks. Systolic pressure is measured indirectly before dosing with a test compound using an E and M pneumatic pulse transducer and a Devices MX2 recorder. Groups of 4 rats are dosed orally with suspensions or solutions of the test compound in 0.5% hydroxypropyl-methyl-cellulose 0.9% saline vehicle. Blood pressures are recorded again at 2, 6 and 24 hours and the results, expressed as a percentage of the pre-dose values compared with those of a similar group of rats receiving vehicle alone.

[3] = system: neuronal uptake of noradrenaline into slices of cerebral cortex; assay: Inhibition of noradrenaline uptake in brain slices; format: cell-based, rat; conditions: for Potency Ratio (imipramine = 1.0) Noradrenaline: inhibition of noradrenaline uptake, rat cerebral cortex slices, relative to imipramine = 1.0; for Inhibition of noradrenaline uptake (in words): qualitative
From the text: Concentration-response curves are obtained both for the test compound and for the standard agent, imipramine. The potency of each test compound is expressed in proportion to that of imipramine. Thus, the potency ratio for the test compound= [formula]

mice = assay: Motor Activity (Exploratory behaviour in mice); format: in vivo, mouse; conditions: i.p., qualitative
Description: The test compounds were administered i.p. to mice (3 groups of 4 per dose) at time 0. Seventy minutes later the animals were transferred to square boxes placed beneath the detector heads of Aktograph activity monitors. The exploratory activity of the mice was counted over the following 20 minute period.

[4] = system: uptake of 5-hydroxytryptamine in slices of cerebral cortex; assay: Inhibition of 5-hydroxytryptamine uptake in brain slices; format: cell-based, rat; conditions: for Potency Ratio (imipramine = 1.0) 5-Hydroxytryptamine: inhibition of 5-hydroxytryptamine uptake, rat cerebral cortex slices, relative to imipramine = 1.0; for Inhibition of 5-hydroxytryptamine uptake (in words): qualitative
Description: The effects of test compounds on the neuronal uptake of noradrenaline into slices of cerebral cortex prepared from rat brain is determined according to the method described by Snyder, Green and Hendley, Kinetics of H^3 -norepihephrine accumulation into slices from different regions of the rat brain (J. Pharm. exp. Therap. 164: 90-102) (1968). The effects of test compounds on the uptake of 5-hydroxytryptamine is obtained in a similar manner except that H^3 5-hydroxytryptamine is used in place of H^3 noradrenaline. Concentration-response curves are obtained both for the test compound and for the standard agent, imipramine. The potency of each test compound is expressed in proportion to that of imipramine. Thus, the potency ratio for the test compound= [formula]

[5] = system: post-synaptic 5HT receptor; assay: 5HT Antagonism in Vitro (isolated rat ileum); format: cell-based
[6] = 50 mg/kg p.o., 2 hr after dosing
[7] = 50 mg/kg p.o., 6 hr after dosing
[8] = 50 mg/kg p.o., 24 hr after dosing
[9] = mice, oral, watched for two hours
[10] = 10 mg/kg p.o., 2 hr after dosing
[11] = 10 mg/kg p.o., 6 hr after dosing
[12] = 10 mg/kg p.o., 24 hr after dosing
[13] = 25 mg/kg p.o., 2 hr after dosing
[14] = 25 mg/kg p.o., 6 hr after dosing
[15] = 25 mg/kg p.o., 24 hr after dosing

## O=C(NC(=O)c1ccccc1)NC1CCN(Cc2c[nH]c3ccccc23)CC1 [Compound I, 1-[1-(indol-3-ylmethyl)piperid-4-yl]-3-benzoyl urea]
Hypertensive rats [1]
  Anti-hypertensive activity (in words): moderate activity
Mice (CF-1); mouse, in vivo
  CNS depression / signs of sedation (in words): does not induce marked CNS depression in animals
Mice (CF-1); mouse, in vivo, po, 120 min
  Lowest Dose to induce effect: Decreased activity: 400 mg/kg p.o.
  Lowest Dose to induce effect: Slight weakness: 400 mg/kg p.o.
Hypertensive rats [2]; [6]
  BP (systolic blood pressure): 90 % control
  HR (heart rate): 101 % control
Hypertensive rats [2]; [7]
  BP (systolic blood pressure): 102 % control
  HR (heart rate): 98 % control
Hypertensive rats [2]; [8]
  BP (systolic blood pressure): 106 % control
  HR (heart rate): 84 % control
Hypertensive rats [2]
  Reduction of blood pressure (in words): without significant activity; also recorded: does not induce marked CNS depression in animals or significantly reduce the blood pressure of hypertensive rats
[3]
  Potency Ratio (imipramine = 1.0) Noradrenaline: 0.06
  Inhibition of noradrenaline uptake (in words): weak inhibitors of noradrenaline uptake
mice
  Effect on exploratory behaviour (in words): virtually without effect
[4]
  Potency Ratio (imipramine = 1.0) 5-Hydroxytryptamine: 10.0
  Inhibition of 5-hydroxytryptamine uptake (in words): potent inhibitors of 5HT uptake
[5]; 10^-6 M, isolated rat ileum
  5HT antagonism: effect on responses of isolated rat ileum to 5-hydroxytryptamine: the responses to the subsequent administration of 5HT were not affected
  Direct effect on the isolated rat ileum preparation: caused the preparation to relax
[5]; in vitro, summary statement
  Antagonism of the post-synaptic 5HT receptor in vitro (in words): does not antagonise the post-synaptic 5HT receptor in vitro

## O=C(NC(=O)c1ccccc1)NC1CCN(CCc2c[nH]c3ccccc23)CC1 [Compound II, 1-benzoyl-3-[1-(2-[3-indolyl]ethyl)piperid-4-yl]urea]
Hypertensive rats [1]
  Anti-hypertensive activity (in words): marked activity
Mice (CF-1); animals (mice), qualitative
  CNS depression / signs of sedation (in words): induced signs of sedation at doses considerably lower than those of compound I required to induce a similar effect
Mice (CF-1); [9]
  Lowest Dose to induce effect: Ataxia: 127 mg/kg p.o.
  Lowest Dose to induce effect: Catalepsy: 400 mg/kg p.o.
  Lowest Dose to induce effect: Decreased activity: 4.0 mg/kg p.o.
  Lowest Dose to induce effect: Decreased respiration: 400 mg/kg p.o.
  Lowest Dose to induce effect: Ptosis: 40 mg/kg p.o.
Hypertensive rats [2]; [10]
  BP (systolic blood pressure): 64 % control
  HR (heart rate): 109 % control
Hypertensive rats [2]; [11]
  BP (systolic blood pressure): 82 % control
  HR (heart rate): 96 % control
Hypertensive rats [2]; [12]
  BP (systolic blood pressure): 99 % control
  HR (heart rate): 97 % control
Hypertensive rats [2]; [13]
  BP (systolic blood pressure): 49 % control
  HR (heart rate): 119 % control
Hypertensive rats [2]; [14]
  BP (systolic blood pressure): 52 % control
  HR (heart rate): 104 % control
Hypertensive rats [2]; [15]
  BP (systolic blood pressure): 79 % control
  HR (heart rate): 97 % control
Hypertensive rats [2]; [6]
  BP (systolic blood pressure): 51 % control
  HR (heart rate): 105 % control
Hypertensive rats [2]; [7]
  BP (systolic blood pressure): 51 % control
  HR (heart rate): 90 % control
Hypertensive rats [2]; [8]
  BP (systolic blood pressure): 62 % control
  HR (heart rate): 96 % control
Hypertensive rats [2]
  Reduction of blood pressure (in words): marked reduction of blood pressure
[3]
  Potency Ratio (imipramine = 1.0) Noradrenaline: 0.2
  Inhibition of noradrenaline uptake (in words): weak inhibitors of noradrenaline uptake
mice
  Effect on exploratory behaviour (in words): marked reduction of exploratory behaviour
[4]
  Potency Ratio (imipramine = 1.0) 5-Hydroxytryptamine: 8.0
  Inhibition of 5-hydroxytryptamine uptake (in words): potent inhibitors of 5HT uptake
[5]; 10^-6 M, isolated rat ileum
  5HT antagonism: effect on responses of isolated rat ileum to 5-hydroxytryptamine: non-competitive blockade

## COc1ccc2[nH]cc(CN3CCC(NC(=O)NC(=O)c4ccccc4)CC3)c2c1 [Example 2, 1-[1-(5-Methoxyindol-3-ylmethyl)piperid-4-yl]-3-benzoylurea]
[3]
  Potency Ratio (imipramine = 1.0) Noradrenaline: inactive
[4]
  Potency Ratio (imipramine = 1.0) 5-Hydroxytryptamine: 3.2

## O=C(NC(=O)c1cccs1)NC1CCN(Cc2c[nH]c3ccccc23)CC1 [Example 3, 1-[1-(Indol-3-ylmethyl)piperid-4-yl]-3-(2-thenoyl)-urea]
[3]
  Potency Ratio (imipramine = 1.0) Noradrenaline: 0.19
[4]
  Potency Ratio (imipramine = 1.0) 5-Hydroxytryptamine: 7.8

## Cc1[nH]c2ccccc2c1CN1CCC(NC(=O)NC(=O)c2ccccc2)CC1 [Example 4, 1-Benzoyl-3-[1-([2-methylindol-3-yl]methyl)piperid-4-yl]urea]
[3]
  Potency Ratio (imipramine = 1.0) Noradrenaline: 0.16
[4]
  Potency Ratio (imipramine = 1.0) 5-Hydroxytryptamine: 0.8

## O=C(NC(=O)c1ccccc1)NC1CCN(Cc2c[nH]c3ccc(O)cc23)CC1 [Example 5, 1-Benzoyl-3-[1-([5-hydroxyindol-3-yl]methyl)piperid-4-yl]urea]
[3]
  Potency Ratio (imipramine = 1.0) Noradrenaline: 0.2
[4]
  Potency Ratio (imipramine = 1.0) 5-Hydroxytryptamine: 12.3

## COc1ccc(C(=O)NC(=O)NC2CCN(Cc3c[nH]c4ccccc34)CC2)cc1 [Example 6, 3-(4-methoxybenzoyl)-1-(1-[indol-3-ylmethyl]piperid-4-yl)urea]
[3]
  Potency Ratio (imipramine = 1.0) Noradrenaline: 0.06
[4]
  Potency Ratio (imipramine = 1.0) 5-Hydroxytryptamine: 5.0

## O=C(NC(=O)c1ccc(F)cc1)NC1CCN(Cc2c[nH]c3ccccc23)CC1 [Example 8, 1-(4-Fluorobenzoyl)-3-(1-[indol-3-ylmethyl]piperid-4-yl)urea]
[3]
  Potency Ratio (imipramine = 1.0) Noradrenaline: 0.1
[4]
  Potency Ratio (imipramine = 1.0) 5-Hydroxytryptamine: 1.04

## O=C(NC(=S)NC1CCN(Cc2c[nH]c3ccccc23)CC1)c1ccccc1 [Example 10, 1-[1-(Indol-3-ylmethyl)piperid-4-yl]-3-benzoylthiourea]
[4]
  Potency Ratio (imipramine = 1.0) 5-Hydroxytryptamine: 6.5

## COc1cccc(C(=O)NC(=O)NC2CCN(Cc3c[nH]c4ccccc34)CC2)c1 [Example 11, 3-(3-Methoxybenzoyl)-1-(1-[indol-3-ylmethyl]piperid-4-yl)urea]
[4]
  Potency Ratio (imipramine = 1.0) 5-Hydroxytryptamine: 2.7
